According to ChEMBL document CHEMBL1201862, “PubChem BioAssay data set” (2004):
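Cultured in 96-well plates, cells were exposed to test compound for 48 hours across five concentrations. GI50 = concentration required for 50% inhibition of growth.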 Active and inactive are the calls of the source. Rule as the data show it: active = GI50 up to about 1.1 µM and inactive = higher.

What was measured:
Experiment in all cases: NCI-60 cell line screen, 48 h
786-0 = system: 786-0
A498 = system: A498
A549 = system: A549
ACHN = system: ACHN
BT-549 = system: BT-549
CAKI-1 = system: CAKI-1
CCRF-CEM = system: CCRF-CEM
COLO 205 = system: COLO 205
DU-145 = system: DU-145
EKVX = system: EKVX
HCC 2998 = system: HCC 2998
HCT-116 = system: HCT-116
HCT-15 = system: HCT-15
HL-60 = system: HL-60
HOP-62 = system: HOP-62
HOP-92 = system: HOP-92
HT-29 = system: HT-29
Hs-578T = system: Hs-578T
IGROV-1 = system: IGROV-1
K562 = system: K562
KM12 = system: KM12
LOX IMVI = system: LOX IMVI
M14 = system: M14
MCF7 = system: MCF7
MDA-MB-231 = system: MDA-MB-231
MDA-MB-435 = system: MDA-MB-435
MDA-N = system: MDA-N
MOLT-4 = system: MOLT-4
Malme-3M = system: Malme-3M
NCI-H226 = system: NCI-H226
NCI-H23 = system: NCI-H23
NCI-H460 = system: NCI-H460
NCI-H522 = system: NCI-H522
NCI/ADR-RES = system: NCI/ADR-RES
OVCAR-3 = system: OVCAR-3
OVCAR-4 = system: OVCAR-4
OVCAR-5 = system: OVCAR-5
OVCAR-8 = system: OVCAR-8
PC-3 = system: PC-3
RPMI-8226 = system: RPMI-8226
RXF 393 = system: RXF 393
SF-268 = system: SF-268
SF-295 = system: SF-295
SF-539 = system: SF-539
SK-MEL-28 = system: SK-MEL-28
SK-MEL-2 = system: SK-MEL-2
SK-MEL-5 = system: SK-MEL-5
SK-OV-3 = system: SK-OV-3
SN12C = system: SN12C
SNB-19 = system: SNB-19
SNB-75 = system: SNB-75
SR = system: SR
SW-620 = system: SW-620
T47D = system: T47D
TK-10 = system: TK-10
U-251 = system: U-251
UACC-257 = system: UACC-257
UACC-62 = system: UACC-62
UO-31 = system: UO-31

Measured: GI50

CCC(=O)c1cc(C(=O)C(=S)SC)cc(C(=O)C(=S)SC)c1
> 60 µM: HCT-15
inactive: 786-0 > 85.7 µM | A498 > 100 µM | A549 > 100 µM | ACHN > 87.1 µM | BT-549 > 100 µM | CAKI-1 > 100 µM | CCRF-CEM 3.05 µM | COLO 205 > 100 µM | DU-145 > 100 µM | EKVX > 100 µM | HCC 2998 > 100 µM | HCT-116 > 100 µM | HL-60 4.83 µM | HOP-62 > 100 µM | HOP-92 > 59.7 µM | HT-29 > 100 µM | Hs-578T > 49.7 µM | IGROV-1 > 100 µM | K562 41.9 µM | KM12 > 100 µM | LOX IMVI 4.19 µM | M14 > 100 µM | MCF7 > 72.1 µM | MDA-MB-231 > 100 µM | MDA-MB-435 > 100 µM | MDA-N > 100 µM | MOLT-4 12 µM | Malme-3M > 27.3 µM | NCI-H226 > 100 µM | NCI-H23 > 76.7 µM | NCI-H460 > 100 µM | NCI-H522 > 55.3 µM | NCI/ADR-RES > 100 µM | OVCAR-3 > 54.2 µM | OVCAR-4 > 100 µM | OVCAR-5 > 100 µM | OVCAR-8 > 100 µM | PC-3 > 100 µM | RPMI-8226 99.3 µM | RXF 393 > 100 µM | SF-268 > 100 µM | SF-295 > 100 µM | SF-539 > 100 µM | SK-MEL-28 > 100 µM | SK-MEL-2 > 100 µM | SK-MEL-5 > 82.8 µM | SK-OV-3 > 100 µM | SN12C > 100 µM | SNB-19 > 100 µM | SNB-75 > 100 µM | SR 11 µM | SW-620 52.8 µM | T47D > 100 µM | TK-10 > 100 µM | U-251 > 69.3 µM | UACC-257 > 100 µM | UACC-62 > 100 µM | UO-31 48.4 µM

CN(C)c1ccc(/C=C(\NC(=O)c2ccccc2)C2=NC(CCC(=O)O)C(=O)O2)cc1 (stereo not given)
> 50 µM: HCT-15
inactive: 786-0 > 50 µM | A498 > 50 µM | A549 > 50 µM | ACHN > 50 µM | BT-549 > 50 µM | CAKI-1 > 50 µM | CCRF-CEM > 43.9 µM | COLO 205 > 50 µM | DU-145 > 50 µM | EKVX > 50 µM | HCC 2998 > 50 µM | HCT-116 > 50 µM | HL-60 49.9 µM | HOP-62 15.9 µM | HOP-92 > 50 µM | HT-29 > 50 µM | Hs-578T > 50 µM | IGROV-1 > 50 µM | K562 > 50 µM | KM12 42.8 µM | LOX IMVI > 44.9 µM | M14 > 50 µM | MCF7 > 50 µM | MDA-MB-231 > 50 µM | MDA-MB-435 > 50 µM | MDA-N > 50 µM | MOLT-4 > 50 µM | Malme-3M > 31.3 µM | NCI-H226 > 50 µM | NCI-H23 > 50 µM | NCI-H460 > 50 µM | NCI-H522 17.1 µM | NCI/ADR-RES 49 µM | OVCAR-3 > 50 µM | OVCAR-4 > 35.1 µM | OVCAR-5 > 50 µM | OVCAR-8 > 41.4 µM | PC-3 > 50 µM | RPMI-8226 35.9 µM | RXF 393 > 50 µM | SF-268 > 50 µM | SF-295 > 50 µM | SF-539 > 35.2 µM | SK-MEL-28 > 50 µM | SK-MEL-2 > 50 µM | SK-MEL-5 > 48.3 µM | SK-OV-3 > 50 µM | SN12C > 50 µM | SNB-19 33.2 µM | SNB-75 > 50 µM | SR 49.2 µM | SW-620 > 50 µM | T47D > 50 µM | TK-10 > 50 µM | U-251 > 47.2 µM | UACC-257 > 50 µM | UACC-62 > 50 µM | UO-31 > 50 µM

COC(=O)/C=C1/OC(c2ccc(C)cc2)=C(Cl)C1=O
9.25 µM: HCT-15
inactive: 786-0 13.9 µM | A498 17.9 µM | A549 20.1 µM | ACHN 16.7 µM | BT-549 17.7 µM | CAKI-1 16 µM | CCRF-CEM 3.26 µM | COLO 205 11.2 µM | DU-145 17.7 µM | EKVX 21.3 µM | HCC 2998 18.9 µM | HCT-116 11.7 µM | HL-60 3.31 µM | HOP-62 19.9 µM | HOP-92 15.2 µM | HT-29 12.9 µM | Hs-578T 22.9 µM | IGROV-1 16.5 µM | K562 4.97 µM | KM12 14.6 µM | LOX IMVI 9.2 µM | M14 18.1 µM | MCF7 16.1 µM | MDA-MB-231 16.9 µM | MDA-MB-435 17.8 µM | MDA-N 16.4 µM | MOLT-4 4.23 µM | Malme-3M 17.7 µM | NCI-H226 23 µM | NCI-H23 19 µM | NCI-H460 22 µM | NCI-H522 9.4 µM | NCI/ADR-RES 22.1 µM | OVCAR-3 12.4 µM | OVCAR-4 13.3 µM | OVCAR-5 19.1 µM | OVCAR-8 16.9 µM | PC-3 13.8 µM | RPMI-8226 3.18 µM | RXF 393 7.66 µM | SF-268 16.4 µM | SF-295 19.8 µM | SF-539 16.6 µM | SK-MEL-28 16.7 µM | SK-MEL-2 16.7 µM | SK-MEL-5 14.5 µM | SK-OV-3 24.2 µM | SN12C 17.9 µM | SNB-19 22.2 µM | SNB-75 16.7 µM | SW-620 10.7 µM | T47D 15.3 µM | TK-10 20.5 µM | U-251 12 µM | UACC-257 20.3 µM | UACC-62 17.1 µM | UO-31 17.5 µM
active: SR 0.489 µM

COC(=O)C(Cc1ccccc1)C(=O)NC(CNC(=O)OCc1ccccc1)C(=O)OCc1ccccc1 (stereo not given)
45.7 µM: HCT-15
inactive: 786-0 25.9 µM | A498 > 47.8 µM | ACHN 34.6 µM | BT-549 53.3 µM | CAKI-1 36.8 µM | CCRF-CEM 14.7 µM | COLO 205 19.8 µM | DU-145 66.5 µM | EKVX 76.7 µM | HCC 2998 30.8 µM | HCT-116 31.9 µM | HL-60 30.9 µM | HOP-62 > 100 µM | HOP-92 32.1 µM | HT-29 29.3 µM | Hs-578T > 63.5 µM | IGROV-1 65.6 µM | K562 15.6 µM | KM12 58.9 µM | LOX IMVI 19.6 µM | M14 15.3 µM | MCF7 > 100 µM | MDA-MB-231 20.8 µM | MDA-MB-435 21.8 µM | MDA-N 21.4 µM | MOLT-4 11.8 µM | Malme-3M 19.8 µM | NCI-H226 32.1 µM | NCI-H23 43.6 µM | NCI-H460 42.1 µM | NCI-H522 26.7 µM | NCI/ADR-RES 27 µM | OVCAR-3 20 µM | OVCAR-4 38.3 µM | OVCAR-5 > 100 µM | OVCAR-8 63.1 µM | PC-3 38.2 µM | RPMI-8226 21.4 µM | RXF 393 21.8 µM | SF-268 44.8 µM | SF-295 47.1 µM | SF-539 40.6 µM | SK-MEL-28 19.3 µM | SK-MEL-2 24.1 µM | SK-MEL-5 18.8 µM | SK-OV-3 > 100 µM | SN12C 49.8 µM | SNB-19 86.3 µM | SNB-75 23.3 µM | SR 24 µM | SW-620 38.1 µM | T47D 36.1 µM | TK-10 33.7 µM | U-251 49.1 µM | UACC-257 17.6 µM | UACC-62 23.6 µM | UO-31 28.6 µM
